The numbers were not newly measured in paper PMC3649970, “A Unique Spumavirus Gag N-terminal Domain with Functional Properties of Orthoretroviral Matrix and Capsid” (PLoS Pathogens, 2013), which cites them from elsewhere.

For the series, the system named is equivalent Gag-NtD (FFV). The settings on record: FFV Env leader peptide with FFV Gag-NtD; ref [29]; cited from earlier work. An excerpt: In the structure, residues 7–16 of the Env leader peptide comprise the amphipathic α-helix bound in the Env binding site of the Gag-NtD and residues 1–6 provide intramolecular hydrogen bonding that stabilises the helical conformation. […] Therefore, the hydrophobic interface observed in the structure likely represents the complete interaction between the leader peptide and FV Gag. The apolar ch ...

Regarding “residues 1–30 of the FFV Env leader peptide: residues 1–30 of the FFV Env leader peptide (MEQEHVMTLKEWMEWNAHKQLQKLQSTHPE; leader peptide; UniProt O56861 1-30, looked up, fragment)”, the equilibrium association constant is 65000 M⁻¹.
